Columns and labels:
[1] = tested on: Gram-negative bacteria (genus Proteus); assay: Antibiotic sensitivity trial (inhibition halos on agar Müller-Hinton plate), Gram-negative isolate; type: cell-based; set-up: key to Plate 1 Sensitivity Level: Sensitive(S); Intermediate or Moderately sensitive (I); Resistant (R); conditions: Plate 1 = FIG. 2 left (Gram-negative bacteria); for Plate 1 (Gram-) (mm) inhibition halo: 18-24 hours at 37° C., average for three experiments; for Plate 1 Sensitivity Level: classified according to halo size
Protocol: (§1) In order to assert the antimicrobial capability of the collagen matrix or membrane, lab testing was carried out. Patient biopsies were collected from different types of infected wounds (neuropathic diabetic foot and biofilms). These samples were homogenized and set to culture for 24 hours to observe if there was bacterial growth or not. When bacterial growth is observed, colonies of these cultures were isolated, and with them, a test for microbial sensitivity to the action of nanometals was carried out. […] In order for this trial to be performed, antibiotics commonly used for eliminating these bacteria and at set concentrations were used as controls. […] In order to analyze the effectiveness of copper nanometals and its effectiveness as antimicrobial agents, three concentrations, 1, 5 and 10 mg/ml, were used. […] The trial was carried out as follows: On the surface of an agar Müller-Hinton plate, 100 μl of a bacterial solution (OD600: 0.4) were inoculated and seeded evenly for bacterial colonies to grow. Then, filter paper discs soaked with known concentrations of the different antibiotics are placed. The antibiotic will spread from the agar filter paper radially. The plate was incubated for 18-24 hours at 37° C., and then the growth inhibition halos are measured by interpreting them according to the available data in databases. The results are expressed as: Sensitive(S), Intermediate or Moderately sensitive (I) and Resistant (R). […] To determine the inhibition halo, the diameter surrounding the sense disc on which bacterial growth was not observed was measured on the plate seeded with bacteria in the presence of different antibiotics. In this case, the inhibition halo is expressed in mm. According to the halo size, the bacteria are classified as sensitive to the antibiotic action, resistant to the antibiotic action or of intermediate resistance to the antibiotic action (data that is published in databases). […] Additionally, the purpose of this trial is to rule out that the matrix alone presents some level of antimicrobial action, therefore, a copper-free matrix was used as control. […] Gram-negative bacteria belong to genus Proteus, and Gram-positive bacteria belong to genus Staphylococcus.

[2] = tested on: Gram-positive bacteria (genus Staphylococcus); assay: Antibiotic sensitivity trial (inhibition halos on agar Müller-Hinton plate), Gram-positive isolate; type: cell-based; set-up: key to Plate 2 Sensitivity Level: Sensitive(S); Intermediate or Moderately sensitive (I); Resistant (R); conditions: Plate 2 = FIG. 2 right (Gram-positive bacteria); for Plate 2 (Gram+) (mm) inhibition halo: 18-24 hours at 37° C., average for three experiments; for Plate 2 Sensitivity Level: classified according to halo size
Protocol: as §1

Structure (SMILES)	Plate 1 (Gram-) (mm) inhibition halo [1] [mm]	Plate 1 Sensitivity Level [1]	Plate 2 (Gram+) (mm) inhibition halo [2] [mm]	Plate 2 Sensitivity Level [2]
CC1(C)S[C@@H]2[C@H](NC(=O)[C@H](N)c3ccccc3)C(=O)N2[C@H]1C(=O)O [AM, Ampicillin]	0	Resistant	12	Intermediate
O=C(O)c1cn(C2CC2)c2cc(N3CCNCC3)c(F)cc2c1=O [CIP, Ciprofloxacin]	28	–	19	–
CC[C@H]1OC(=O)[C@H](C)[C@@H](O[C@H]2C[C@@](C)(OC)[C@@H](O)[C@H](C)O2)[C@H](C)[C@@H](O[C@@H]2O[C@H](C)C[C@H](N(C)C)[C@H]2O)[C@](C)(OC)C[C@@H](C)C(=O)[C@H](C)[C@@H](O)[C@]1(C)O [CLR, Clarithromycin]	15	Intermediate	18	Sensitive

— patent US20250222038A1, “COLLAGEN MATRIX OR MEMBRANE WITH ANTIMICROBIAL PROPERTIES” (BIOCELLIX SPA, priority 2017, published 2025)
